For one experiment, the system named is WI-38. The experiment is described as follows: Antiproliferative activity against human WI38 cells after 48 hrs by MTT assay. The following applies: WI-38, 48 h. It is filed as cell-based.
The test system of experiment [1] is MGC-803. The experiment is described as follows: Antiproliferative activity against human MGC803 cells after 48 hrs by MTT assay. Type of experiment: functional, cell-based. To be noted: MGC-803, 48 h.
In another experiment the test system is HepG2. Description: Antiproliferative activity against human HepG2 cells after 48 hrs by MTT assay. It is filed as functional, cell-based. The following applies: HepG2, 48 h.
A further experiment has as its system T-24. The experiment is described as follows: Antiproliferative activity against human T24 cells after 48 hrs by MTT assay. The following applies: T-24, 48 h. Type of experiment: functional, cell-based.
For the next experiment, the system named is A549. The experiment is described as follows: cells. To be noted: Homo sapiens, A549, 48 h.
The next experiment deals with HeLa. Description: cells. The following applies: Homo sapiens, 48 h.
Experiment [2] relates to MGC-803. The experiment is described as follows: Antitumor activity against human MGC803 cells xenografted in BALB/C mouse assessed as tumor growth inhibition at 6 mg/kg, ip dosed every other day for 16 days relative to control. The following applies: MGC-803, ip, read-out: TGI. Type of experiment: functional.
The test system of the next experiment is DNA. Description: Binding affinity to Escherichia coli supercoiled pBR322 DNA assessed as DNA intercalation at 50 uM after 1 hr by ethidium bromide staining-based agarose gel electrophoresis analysis. It is filed as nucleic-acid assay.
The target of experiment [3] is T1, DNA topoisomerase 1 (Homo sapiens) (UniProt P11387).
T1 sequence (whole entry): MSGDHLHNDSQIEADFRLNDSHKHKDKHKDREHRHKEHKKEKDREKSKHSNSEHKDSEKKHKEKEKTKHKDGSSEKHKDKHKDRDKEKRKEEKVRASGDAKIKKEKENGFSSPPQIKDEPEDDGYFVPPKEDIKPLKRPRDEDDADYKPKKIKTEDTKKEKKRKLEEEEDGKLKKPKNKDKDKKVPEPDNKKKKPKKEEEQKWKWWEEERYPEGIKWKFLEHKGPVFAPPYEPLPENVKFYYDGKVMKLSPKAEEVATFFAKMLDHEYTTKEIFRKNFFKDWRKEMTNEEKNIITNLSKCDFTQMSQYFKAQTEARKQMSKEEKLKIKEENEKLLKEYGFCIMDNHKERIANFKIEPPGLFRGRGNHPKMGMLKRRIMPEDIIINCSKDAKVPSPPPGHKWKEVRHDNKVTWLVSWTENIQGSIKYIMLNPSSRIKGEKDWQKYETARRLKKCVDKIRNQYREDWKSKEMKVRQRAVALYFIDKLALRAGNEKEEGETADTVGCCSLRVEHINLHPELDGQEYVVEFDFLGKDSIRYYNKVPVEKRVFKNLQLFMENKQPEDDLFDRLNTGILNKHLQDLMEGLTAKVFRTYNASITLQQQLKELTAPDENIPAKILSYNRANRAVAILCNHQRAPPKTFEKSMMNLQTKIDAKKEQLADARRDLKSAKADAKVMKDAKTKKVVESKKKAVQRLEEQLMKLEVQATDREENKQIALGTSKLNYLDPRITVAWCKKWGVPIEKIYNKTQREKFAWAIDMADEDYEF
Description: Inhibition of topoisomerase 1 (unknown origin) at 50 uM using pBR322 DNA as substrate preincubated for 30 mins followed by substrate addition and measured after 30 mins by ethidium bromide staining-based agarose gel electrophoresis analysis.

The target in experiment [4] is T1, DNA topoisomerase 1 (Homo sapiens). The experiment is described as follows: Inhibition of topoisomerase 1 (unknown origin) using pBR322 DNA as substrate assessed as reduction in pBR322 DNA unwinding at 50 uM after 30 mins by ethidium bromide staining-based agarose gel electrophoresis analysis.

The source made the active and inactive calls. The calls are words filed in the database; no cut-off is given here.

As to `c1ccc2nc(-c3nc4ccccc4o3)c(NCCN3CCOCC3)nc2c1`, the IC50 with WI-38, with MGC-803 [1], in the experiment with HepG2, with T-24, in the experiment with A549 and in the experiment on HeLa was above 100 µM in each case.
`c1ccc2nc(-c3nc4ccccc4[nH]3)c(NCCN3CCOCC3)nc2c1`: the IC50 in the experiment with WI-38, in the experiment with MGC-803 [1], in the experiment with HepG2, in the experiment with T-24, with A549 and in the experiment with HeLa was above 100 µM throughout.
Turning to `c1ccc2nc(-c3nc4ccccc4o3)c(NCCCN3CCOCC3)nc2c1`, the IC50 in the experiment with WI-38, in the experiment on MGC-803 [1], in the experiment with HepG2, in the experiment on T-24, in the experiment on A549 and in the experiment on HeLa was above 100 µM in each case.
For `c1ccc2nc(-c3nc4ccccc4[nH]3)c(NCCCN3CCOCC3)nc2c1`, the IC50 in the experiment with WI-38, with MGC-803 [1], with HepG2, with T-24, in the experiment on A549 and in the experiment with HeLa was above 100 µM each time.
With `c1ccc2nc(-c3nc4ccccc4s3)c(NCCCN3CCOCC3)nc2c1`, the IC50 in the experiment with WI-38, with MGC-803 [1], in the experiment on HepG2, in the experiment on T-24, in the experiment with A549 and in the experiment with HeLa was above 100 µM each time.
In the case of `CC[C@@]1(O)C(=O)OCc2c1cc1n(c2=O)Cc2cc3ccccc3nc2-1` [CAMPTOTHECIN], the IC50 in the experiment on WI-38 stood at 8.37 µM; with MGC-803 [1], 2.96 µM; in the experiment with HepG2 it was 4.79 µM; with T-24, 6.8 µM; with A549 it was 4.43 µM; in the experiment on HeLa, 6.51 µM. The inhibition in vivo at 6 mg/kg in the experiment with MGC-803 [2] came out at 51.5%.
With `CCN(CC)CCCNc1nc2ccccc2nc1-c1nc2c(ccc3ccccc32)o1`, the IC50 worked out at 14.7 µM in the experiment with WI-38; 11.5 µM in the experiment on MGC-803 [1]; 12.7 µM in the experiment on HepG2; 8 µM with T-24; 11.3 µM with A549; 10.8 µM in the experiment with HeLa. Also, the result in the experiment with DNA was inactive. Also, the inhibition entry in experiment [3] and in experiment [4] was “inactive” each time.
Turning to `c1ccc2nc(-c3nc4ccccc4s3)c(NCCN3CCOCC3)nc2c1`, the IC50 in the experiment with WI-38, in the experiment with MGC-803 [1], with HepG2, in the experiment with T-24, in the experiment with A549 and in the experiment on HeLa was above 100 µM each time.
`CN(C)CCCNc1nc2ccccc2nc1-c1nc2c(ccc3ccccc32)o1`: the IC50 in the experiment on WI-38 was 16.4 µM; in the experiment on MGC-803 [1] it was 11.3 µM; in the experiment with HepG2, 10.8 µM; with T-24, 5.75 µM; in the experiment with A549, 4.66 µM; with HeLa, 10.5 µM. Besides, the outcome in the experiment on DNA was inactive. In addition, the inhibition entry in [3] and in experiment [4] was “inactive” in each case.

The values above are taken from ChEMBL document CHEMBL4316587, “Identification of 3-(benzazol-2-yl)quinoxaline derivatives as potent anticancer compounds: Privileged structure-based design, synthesis, and bioactive evaluation in vitro and in vivo” (Eur J Med Chem, 2019).
